Laboratory results published in patent US12358913B2, “Crystal of diarylthiohydantoin compound” (CHIA TAI TIANQING PHARMACEUTICAL GROUP CO., LTD., priority 2019, dated 2025).
Several values for one entry are separate records, joined by “and”; a condition that tells them apart may be missing. Equal entries are not always repeated.

Experiments:
[1] = Pharmacokinetic test in male CD-1 mice, plasma by LC/MS/MS; format: in vivo; details: mouse, po, intragastric administration, 2 mg/kg
Protocol: Taking male CD-1 mice as test animals, the drug concentrations in the plasma of the mice at different time points after intravenous and intragastric administration of the compound of formula I were determined by an LC/MS/MS method. This example aims to investigate the pharmacokinetic performance of the compound of formula I in mice and to evaluate the pharmacokinetic characteristics.
2.2 Test Animals: 4 Healthy Adult Male CD-1 Mice, which were Divided into 2 Groups (2 Mice in Each Group) According to the Body Weight. Animals were Purchased from Shanghai Sippe-Bk Lab Animal Co., Ltd., and Animal Production License Number was SCXK (Shanghai) 2013-0016. 2.3 Drug Preparation
An appropriate amount of sample was weighed, and sequentially added with an appropriate amount of DMSO, PEG400 and water according to the volume ratio of 10:40:50, and the mixture was stirred and ultrasonicated to a clear state (0.4 mg/mL) for intravenous administration. […]
LC/MS/MS method was used to determine the content of the test compound in the plasma of mice after intravenous and intragastric administration. The linear range of the method was 2.00-6000 nmol/L; plasma samples were analyzed after treatment with acetonitrile to precipitate proteins.

[2] = Tissue distribution test (plasma and brain) in male CD-1 mice; format: in vivo; details: intragastric administration, 2 mg/kg, 4 h
Protocol: Taking male CD-1 mice as test animals, the drug concentrations in the plasma and brain of the mice after intragastric administration of the compound of formula I were determined by an LC/MS/MS method.
2.2 Test Animals: 2 Healthy Adult Male CD-1 Mice. Animals were Purchased from Shanghai Sippe-Bk Lab Animal Co., Ltd.
An appropriate amount of sample was added into 0.5% CMC/0.2% Tween aqueous solution, and the mixture was stirred and ultrasonicated to a suspension state (0.4 mg/mL).
Two male CD-1 mice, after fasting overnight, were subjected to intragastric administration at a volume of 5 mL/kg and a dosage of 2 mg/kg.
Male CD-1 mice, after intragastric administration of the compound of formula I, were subjected to 100 μL of blood collection by cardiac puncture at 4 h, and the blood was placed in tubes containing 2 μL of EDTA-K2 and centrifuged at 3000 g for 15 min to separate out 30 μL of plasma, which was stored at −60° C. Meanwhile, brain tissues were collected, washed, homogenized with 9-fold 15 mM PBS/MeOH (v: v, 2:1), and stored at −60° C. The animals were allowed to eat 4 h after administration.
LC/MS/MS method was used to determine the content of test compound in the plasma and brain of mice after intragastric administration. The linear range of the method was 2.00-6000 nmol/L; plasma samples were analyzed after treatment with acetonitrile to precipitate proteins.

[3] = system: human prostate cancer LNCaP-FGC cells; experiment: In vivo pharmacodynamic study on subcutaneous xenograft tumor model of human prostate cancer LNCaP-FGC cells; design: species or system CB-17 SCID mouse; details: for Relative tumor proliferation rate T/C / TGI: after 21 days of administration
Protocol: Human prostate cancer LNCaP-FGC cells (ATCC, Manassas, VA) were cultured in vitro, in a monolayer way, in an RPMI1640 medium containing 10% fetal bovine serum at 37° C. and 5% CO2. Routine digestion treatment with pancreatin-EDTA was performed twice a week for passage. When the saturation degree of the cells is 80-90%, the cells were collected, counted and inoculated.
0.2 mL (10×10^6) of LNCaP-FGC cells (10×10^6+Matrigel, 1:1) were inoculated subcutaneously into the right back of each CB-17 SCID mouse. The mice were divided into groups for administration when the mean tumor volume reached 100-150 mm^3.
Tumor diameters were measured twice weekly using a vernier caliper. The calculation formula for tumor volume was: V=0.5a×b^2, with a and b representing the long and short diameters of the tumor, respectively. The anti-tumor therapeutic effect of the compound was evaluated by TGI (%) or relative tumor proliferation rate T/C (%). TGI (%)=[(1−(average tumor volume of a treatment group at the end of administration−average tumor volume of the treatment group at the start of administration))/(average tumor volume of a vehicle control group at the end of treatment-average tumor volume of the vehicle control group at the start of treatment)]×100%. The calculation formula for relative tumor proliferation rate T/C (%) was as follows: T/C %=TRTV/CRTV×100% (TRTV: RTV of treatment group; CRTV: RTV of negative control group). Relative tumor volume (RTV) was calculated based on the results of tumor measurement. The calculation formula was: RTV=Vt/V0, wherein V0 was the average tumor volume measured at the time of grouping and administration (i.e., d0), Vt was the average tumor volume at a certain measurement, and the data of TRTV and CRTV were obtained on the same day.
Statistical analysis included mean and standard error of mean (SEM) of tumor volume at each time point for each group. […] Comparison between two groups was analyzed using T-test, comparison among three or more groups was analyzed using one-way ANOVA. […] If there was […] in F values, Dunnet (2-sided) method was used for analysis. All data analysis was performed with SPSS 17.0. “P<0.05” was defined as a significant difference.

[4] = Hygroscopicity by dynamic vapor sorption (DVS); format: physicochemical; details: 25±1° C. and 80±2% RH
Protocol: Instrument model: SMS DVS Advantage
Test conditions: a sample (10-15 mg) of the crystal of the compound of formula I prepared in Example 2 was placed in a DVS sample tray for testing.
The detailed DVS parameters were as follows:
Balancing: dm/dt=0.01%/min (shortest: 10 min, longest: 180 min)
Drying: drying at 0% RH for 120 min
RH (%) test gradient: 10%
Range of RH (%) test gradient: 0%-90%-0%
Note: ΔW % represents the moisture gain of the test compound at 25±1° C. and 80±2% RH.

[5] = Solid stability of the crystal, purity by HPLC; format: physicochemical
Excerpt: References were made to the requirements in the “Guidelines for the Stability Test of APIs and Preparations” (Appendix XIX C of the Volume Two of the Chinese Pharmacopoeia, 2010 Edition) for the conditions and the method for the stability test of the crystal, and the stability of the crystalline solid under conditions of different influence factors was studied with the crystal prepared in Example 2 as a test sample.
High performance liquid chromatography (HPLC): column: Waters xbridge shiled RP18 (150 mm*4.6 mm, 3.5 μm); PN: 186003045; wavelength: 228 nm; mobile phase A: pH 4.5, 5 mmol/L sodium acetate buffer solution (pH adjusted with phosphoric acid); mobile phase B: acetonitrile; elution mode: gradient elution.

Row | Compound | bioavailability [1] [%] | Brain-to-plasma concentration ratio [2] | Concentration in brain [2] [nmol/kg] | Concentration in plasma [2] [µM] | Relative tumor proliferation rate T/C ([3]; 10 mg/kg PO QD) [%] | TGI ([3]; 10 mg/kg PO QD) [%] | Tolerance of the animals to the test compound ([3]; 10 mg/kg and 20 mg/kg PO QD × 21 days) | Relative tumor proliferation rate T/C ([3]; 20 mg/kg PO QD) [%] | TGI ([3]; 20 mg/kg PO QD) [%] | ΔW % (moisture gain) [4] [%] | Purity of the crystal (stability) ([5]; 75% RH, 40° C., 1 month) [%] | Purity of the crystal (stability) ([5]; 75% RH, 40° C., 2 months) [%] | Purity of the crystal (stability) ([5]; 75% RH, 40° C., 3 months) [%] | Purity of the crystal (stability) ([5]; 75% RH, 40° C., 10 days) [%] | Purity of the crystal (stability) ([5]; 75% RH, 60° C., 1 day) [%] | Purity of the crystal (stability) ([5]; 75% RH, 60° C., 10 days) [%] | Purity of the crystal (stability) ([5]; 92.5% RH, room temperature, 10 days) | Purity of the crystal (stability) ([5]; Initial test sample) [%] | Purity of the crystal (stability) ([5]; wrapped with tin foil paper, exposed to visible light of 1200000 Lux and UV of 200 W at room temperature) [%]
1 | CCc1cc(=O)n2cc(N3C(=S)N(c4ccc(C#N)c(Cl)c4)C(=O)C3(C)C)cc(F)c2n1 [Compound of formula I, 2-chloro-4-(3-(2-ethyl-9-fluoro-4-oxo-4H-pyrido[1,2-a]pyrimidin-7-yl)-4,4-dimethyl-5-oxo-2-thioimidazolidin-1-yl)benzonitrile] | 68.1 | 0.0322 | 265 | 8.26 | 43.93 | 62.75 | good tolerance | 32.37 | 76.16 |  |  |  |  |  |  |  |  |  | 
2 | CCc1cc(=O)n2cc(N3C(=S)N(c4ccc(C#N)c(Cl)c4)C(=O)C3(C)C)cc(F)c2n1 [crystal of the compound of formula I, 2-chloro-4-(3-(2-ethyl-9-fluoro-4-oxo-4H-pyrido[1,2-a]pyrimidin-7-yl)-4,4-dimethyl-5-oxo-2-thioimidazolidin-1-yl)benzonitrile] |  |  |  |  |  |  |  |  |  | 1.018 | 99.17 | 99.14 | 99.16 | 99.15 | 99.14 | 99.16 | 99.18% and 99.14% | 99.17 | 99.13
